Columns and labels:
C57BL/6 mice = assay: Organ and body weights; assay type: in vivo, mouse; conditions: 24 h dose-response study
hepatic gene expression = conditions: liver, 300 mg/kg PCB153; ref Kopec et al. 2010b; cited from earlier work
liver of C57BL/6 mice [1] = assay: Hepatic triglyceride measurement; assay type: in vivo, mouse
liver of C57BL/6 mice [2] = assay: Liver histopathology; assay type: in vivo, mouse
[3] = liver, after seven days; ref Kopec et al. 2010b; cited from earlier work
AhR = conditions: ref Craft et al. 2002; Honkakoski et al. 2003; Tabb et al. 2004; Kopec et al. 2010b; cited from earlier work
[4] = ref Diliberto et al. 1999; cited from earlier work
liver = conditions: when co-treated with TCDD; ref Mitchell et al. 2010; cited from earlier work

Row | SMILES | relative liver weight (RLW) (C57BL/6 mice) | down-regulation of Elovl5 (hepatic gene expression) | hepatic triglycerides (liver of C57BL/6 mice [1]) | hepatic inflammation (liver of C57BL/6 mice [2]; time course study) | hepatocellular hypertrophy (liver of C57BL/6 mice [2]; time course study) | hepatocellular vacuolization (liver of C57BL/6 mice [2]; time course study) | hepatic level at 168 h [3] | AhR binding or activation (AhR) | hepatic inflammation / cell infiltration (liver of C57BL/6 mice [2]; 24 h dose-response, TCDD 15, 30, 45 μg/kg, MIX three highest combinations) | hepatic TCDD accumulation, fold lower in Cyp1a2 null mice compared to wild types [4] | increase in hepatic proliferation (liver)
1 | Clc1cc(Cl)c(-c2cc(Cl)c(Cl)cc2Cl)cc1Cl [PCB153, 2,2′,4,4′,5,5′-hexachlorobiphenyl] | increased RLW only at 100 and 300 mg/kg | ~ 2 fold | no effect | did not elicit inflammation | mild to moderate centrilobular hypertrophy | vacuolization comparable to levels observed in vehicles | dramatically decreased | does not bind or activate | – | – | –
2 | Clc1cc2c(cc1Cl)Oc1cc(Cl)c(Cl)cc1O2 [TCDD, 2,3,7,8-tetrachlorodibenzo-p-dioxin] | comparable increases in RLW in all but the lowest dose groups | – | significant increases | moderate multifocal inflammation | – | marked hepatocellular vacuolization | more modest reductions | – | minimal multifocal inflammation | 10 fold | –
3 | Clc1cnc(Oc2ccc(Oc3ncc(Cl)cc3Cl)cc2)c(Cl)c1 [TCPOBOP] | – | – | – | – | – | – | – | – | – | – | 30–50%
